Source: PubChem BioAssay AID248 (DTP/NCI, 2004)
Values joined by “and” are separate entries in the source; they are usually repeats but may differ in a detail not shown here. Equal entries are not always repeated. Toxic doses and inconclusive results are not listed. Cut-off read from the data, not from the text of the source: active = T/C of 150% or more; inactive = T/C below 125%.

Tested on: L1210 leukemia ip in BDF1 mice, survival T/C
Experiment: NCI In Vivo Anticancer Drug Screen. Data for tumor model L1210 Leukemia (intraperitoneal) in B6D2F1 (BDF1) mice
Conditions: endpoint: mean survival time, higher = longer survival
Procedure, shortened: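 Read-out is survival time, reported as the treated-group measurement over the vehicle-control measurement.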

[1] = dose: 100.0 mg/kg/injection, schedule: Q01DX009 (ip), vehicle: Klucel (hydroxypropylcellulose) (HPC)
[2] = dose: 200.0 mg/kg/injection, schedule: Q01DX009 (ip), vehicle: Klucel (hydroxypropylcellulose) (HPC)
[3] = dose: 25.0 mg/kg/injection, schedule: Q01DX009 (ip), vehicle: Klucel (hydroxypropylcellulose) (HPC)
[4] = dose: 50.0 mg/kg/injection, schedule: Q01DX009 (ip), vehicle: Klucel (hydroxypropylcellulose) (HPC)
[5] = dose: 100.0 mg/kg/injection, schedule: Q04DX003 (ip), vehicle: Klucel (hydroxypropylcellulose) (HPC)
[6] = dose: 200.0 mg/kg/injection, schedule: Q04DX003 (ip), vehicle: Klucel (hydroxypropylcellulose) (HPC)
[7] = dose: 400.0 mg/kg/injection, schedule: Q04DX003 (ip), vehicle: Klucel (hydroxypropylcellulose) (HPC)
[8] = dose: 100.0 mg/kg/injection, schedule: Q04DX002 (ip), vehicle: Klucel (hydroxypropylcellulose) (HPC)
[9] = dose: 200.0 mg/kg/injection, schedule: Q04DX002 (ip), vehicle: Klucel (hydroxypropylcellulose) (HPC)
[10] = dose: 100.0 mg/kg/injection, schedule: Q01DX001 (ip), vehicle: saline
[11] = dose: 200.0 mg/kg/injection, schedule: Q01DX001 (ip), vehicle: saline
[12] = dose: 400.0 mg/kg/injection, schedule: Q01DX001 (ip), vehicle: saline
[13] = dose: 100.0 mg/kg/injection, schedule: Q04DX003 (ip), vehicle: saline with Tween-80
[14] = dose: 200.0 mg/kg/injection, schedule: Q04DX003 (ip), vehicle: saline with Tween-80
[15] = dose: 400.0 mg/kg/injection, schedule: Q04DX003 (ip), vehicle: saline with Tween-80
[16] = dose: 100.0 mg/kg/injection, schedule: Q01DX009 (ip), vehicle: saline

Measured: T/C

CC(C)CCCCCOC(N)=O
inactive: [1] 96 % of control | [2] 103 % of control | dose: 400.0 mg/kg/injection, schedule: Q01DX009 (ip), vehicle: Klucel (hydroxypropylcellulose) (HPC) 102 % of control

O=C(O)CCC(=O)c1ccc2sc3ccccc3c2c1
inactive: [3] 106 % of control | [4] 100 % of control | [1] 97 % of control and 106 % of control | [5] 98 % of control | [6] 103 % of control | [7] 89 % of control

COC(=O)c1cc(N)ccc1Br
inactive: dose: 100.0 mg/kg/injection, schedule: Q04DX003 (sc), vehicle: olive oil, sesame oil, peanut oil 93 % of control | dose: 200.0 mg/kg/injection, schedule: Q04DX003 (sc), vehicle: olive oil, sesame oil, peanut oil 111 % of control | dose: 400.0 mg/kg/injection, schedule: Q04DX003 (sc), vehicle: olive oil, sesame oil, peanut oil 95 % of control

CCCCN1C(=O)C2C3CCC(O3)C2C1=O (stereo not drawn)
inactive: [8] 98 % of control | [9] 103 % of control

CC(=O)c1c(O)cc(C)[nH]c1=O
inactive: [10] 86 % of control | [11] 89 % of control | [12] 86 % of control

CCCC/C=C/C1C=CCCC1 (stereo not drawn)
inactive: dose: 50.0 mg/kg/injection, schedule: Q01DX009 (ip), vehicle: other 100 % of control | dose: 100.0 mg/kg/injection, schedule: Q01DX009 (ip), vehicle: other 95 % of control | dose: 200.0 mg/kg/injection, schedule: Q01DX009 (ip), vehicle: other 100 % of control

Cc1ccc(C(=O)c2sc(Nc3cccc(C(F)(F)F)c3)c(C#N)c2N)c(C)c1
inactive: dose: 100.0 mg/kg/injection, schedule: Q04DX002 (ip), vehicle: saline with Tween-80 95 % of control | dose: 200.0 mg/kg/injection, schedule: Q04DX002 (ip), vehicle: saline with Tween-80 87 % of control | dose: 400.0 mg/kg/injection, schedule: Q04DX002 (ip), vehicle: saline with Tween-80 91 % of control

CCC(=O)Nc1cc(C(F)(F)F)ccc1Cl
inactive: dose: 100.0 mg/kg/injection, schedule: Q01DX009 (ip), vehicle: saline with Tween-80 96 % of control | [13] 103 % of control | dose: 200.0 mg/kg/injection, schedule: Q01DX009 (ip), vehicle: saline with Tween-80 96 % of control | [14] 98 % of control | dose: 400.0 mg/kg/injection, schedule: Q01DX009 (ip), vehicle: saline with Tween-80 98 % of control | [15] 98 % of control

COC(=O)NCc1nc2cc3c[nH][nH]c3cc2n1
inactive: dose: 75.0 mg/kg/injection, schedule: Q01DX001 (ip), vehicle: carboxymethylcellulose (CMC) 91 % of control

COC(=O)c1[nH]nc(-c2ccccc2)c1N
inactive: [13] 101 % of control | [14] 93 % of control | [15] 90 % of control

CC12CC3CC(C)(C1)CC(CN=C(N)CS)(C3)C2
inactive: dose: 2.5 mg/kg/injection, schedule: Q01DX009 (ip), vehicle: Klucel (hydroxypropylcellulose) (HPC) 109 % of control | dose: 2.5 mg/kg/injection, schedule: Q04DX002 (ip), vehicle: Klucel (hydroxypropylcellulose) (HPC) 96 % of control | dose: 5.0 mg/kg/injection, schedule: Q01DX009 (ip), vehicle: Klucel (hydroxypropylcellulose) (HPC) 114 % of control | dose: 5.0 mg/kg/injection, schedule: Q04DX002 (ip), vehicle: Klucel (hydroxypropylcellulose) (HPC) 101 % of control | dose: 10.0 mg/kg/injection, schedule: Q01DX009 (ip), vehicle: Klucel (hydroxypropylcellulose) (HPC) 111 % of control | dose: 10.0 mg/kg/injection, schedule: Q04DX002 (ip), vehicle: Klucel (hydroxypropylcellulose) (HPC) 102 % of control

CCOc1ccccc1/C=N\NC(=O)c1cccc2ccccc12
inactive: [10] 95 % of control | [11] 95 % of control | [12] 90 % of control

CC(C)C[As](C)(=O)O
inactive: dose: 66.0 mg/kg/injection, schedule: Q01DX009 (ip), vehicle: saline 107 % of control | [16] 115 % of control | dose: 150.0 mg/kg/injection, schedule: Q01DX009 (ip), vehicle: saline 94 % of control

C1=Cc2ccccc2/C1=C/c1cccc(/C=C2\C=Cc3ccccc32)c1
inactive: dose: 6.25 mg/kg/injection, schedule: Q01DX009 (ip), vehicle: saline with Tween-80 101 % of control | dose: 12.5 mg/kg/injection, schedule: Q01DX009 (ip), vehicle: saline with Tween-80 97 % of control | dose: 12.5 mg/kg/injection, schedule: Q04DX003 (ip), vehicle: saline with Tween-80 100 % of control | dose: 25.0 mg/kg/injection, schedule: Q01DX009 (ip), vehicle: saline with Tween-80 97 % of control | dose: 25.0 mg/kg/injection, schedule: Q04DX003 (ip), vehicle: saline with Tween-80 95 % of control

Nc1ccc(C(=O)O)c(F)c1
inactive: [8] 101 % of control | [9] 104 % of control | dose: 400.0 mg/kg/injection, schedule: Q04DX002 (ip), vehicle: Klucel (hydroxypropylcellulose) (HPC) 101 % of control

O=S(=O)(CBr)CBr
inactive: [10] 98 % of control | [11] 95 % of control | [12] 112 % of control

O=S1(=O)/C(=C\C2CCCCC2)c2c1c(-c1ccccc1)c1ccccc1c2-c1ccccc1
inactive: dose: 50.0 mg/kg/injection, schedule: Q01DX001 (ip), vehicle: carboxymethylcellulose (CMC) 86 % of control | dose: 200.0 mg/kg/injection, schedule: Q01DX001 (ip), vehicle: carboxymethylcellulose (CMC) 92 % of control | dose: 400.0 mg/kg/injection, schedule: Q01DX001 (ip), vehicle: carboxymethylcellulose (CMC) 89 % of control

C=C(C)CC1(CC)C(=O)NC(=S)NC1=O
inactive: [13] 96 % of control | [14] 98 % of control

CC(C)(C)CCN1C(=O)c2ccccc2C1=O
inactive: [10] 94 % of control | [16] 100 % of control | [11] 92 % of control | dose: 200.0 mg/kg/injection, schedule: Q01DX009 (ip), vehicle: saline 97 % of control | [12] 92 % of control | dose: 400.0 mg/kg/injection, schedule: Q01DX009 (ip), vehicle: saline 97 % of control

O=C(O)c1ccccc1Br.[Ni]
inactive: dose: 3.0 mg/kg/injection, schedule: Q01DX009 (ip), vehicle: Klucel (hydroxypropylcellulose) (HPC) 91 % of control | dose: 6.0 mg/kg/injection, schedule: Q01DX009 (ip), vehicle: Klucel (hydroxypropylcellulose) (HPC) 94 % of control | dose: 12.0 mg/kg/injection, schedule: Q01DX009 (ip), vehicle: Klucel (hydroxypropylcellulose) (HPC) 94 % of control | dose: 12.5 mg/kg/injection, schedule: Q01DX001 (ip), vehicle: Klucel (hydroxypropylcellulose) (HPC) 97 % of control | dose: 25.0 mg/kg/injection, schedule: Q01DX001 (ip), vehicle: Klucel (hydroxypropylcellulose) (HPC) 93 % of control | [3] 88 % of control | dose: 50.0 mg/kg/injection, schedule: Q01DX001 (ip), vehicle: Klucel (hydroxypropylcellulose) (HPC) 103 % of control

O=[N+]([O-])c1cccc2nc(N/N=C/c3ccccc3O)ccc12
inactive: dose: 25.0 mg/kg/injection, schedule: Q01DX009 (ip), vehicle: water 89 % of control | dose: 50.0 mg/kg/injection, schedule: Q01DX009 (ip), vehicle: water 94 % of control | dose: 200.0 mg/kg/injection, schedule: Q01DX009 (ip), vehicle: water 94 % of control | dose: 400.0 mg/kg/injection, schedule: Q01DX009 (ip), vehicle: water 93 % of control

Cc1cccc2cc3cccc(C)[n+]3cc12
inactive: dose: 5.0 mg/kg/injection, schedule: Q01DX001 (ip), vehicle: other 100 % of control | dose: 10.0 mg/kg/injection, schedule: Q01DX001 (ip), vehicle: other 97 % of control | dose: 20.0 mg/kg/injection, schedule: Q01DX001 (ip), vehicle: other 100 % of control

Cc1c(Cl)cccc1N=Cc1ccccc1O
inactive: [4] 96 % of control | [1] 108 % of control | [5] 109 % of control | [2] 110 % of control | [6] 107 % of control | [7] 98 % of control

Nc1ncnc2c1ncn2C1OCC(O)C(O)C1O (stereo not drawn)
inactive: [10] 106 % of control | [11] 98 % of control | [12] 91 % of control

COC(=O)c1ccc(N(C)CC(=O)CNc2nc(N)nc(SCc3ccccc3)c2[N+](=O)[O-])cc1
inactive: dose: 100.0 mg/kg/injection, schedule: Q01DX001 (ip), vehicle: saline with Tween-80 88 % of control | dose: 200.0 mg/kg/injection, schedule: Q01DX001 (ip), vehicle: saline with Tween-80 89 % of control | dose: 400.0 mg/kg/injection, schedule: Q01DX001 (ip), vehicle: saline with Tween-80 88 % of control
